Laboratory results: patent US20080160000A1 (priority 2006, published 2008)
Where two headings read alike, the source gives them in different places.

Legend:
[1] = tested on: Eimeria acervulina; test: Example 1: chickens infected with Eimeria acervulina, feed test (growth, lesion, OPG, ACI); type: in vivo
Method: Seven groups (30 chickens/group) of test chickens (type of chickens: chunky, one week of age, male) were prepared.
The test chickens of the first to seventh groups are bred for 12 days by freely feeding the feeds (Table 4) obtained by adding the ingredients to the basal feed (100 mass %) shown in Table 1. The test chickens of the second to seventh groups excluding the first group were infected with oocysts of coccidial protozoa Eimeria acervulina in a ratio of 5.0×10^4 oocysts/chicken in an oral administration manner on the seventh day after the start of the breeding. Next, after the breeding was finished, the test chickens of the groups were dissected, and degrees of lesions in the duodenums were evaluated according to the following evaluation criteria. In addition, on the dissection day, feces of the groups were sampled, and the number of oocysts per gram of the feces (OPG) was measured. OPG scores were determined by OPG values according to the evaluation criteria as follow.

[2] = tested on: Eimeria maxima; test: Example 2: chickens infected with Eimeria maxima, feed test (growth, OPG); type: in vivo
Method: Three groups (20 chickens/group) of tested chickens (type of chickens: chunky, neonatal chick, male) were prepared.
The test chickens of the eighth to tenth groups are bred for 28 days by freely feeding the feeds (Table 6) obtained by adding the ingredients to the basal feed (100 mass %) shown in Table 1. The test chickens of all the groups were infected with oocysts of coccidial protozoa Eimeria maxima in a ratio of 1.5×10^4 oocysts/chicken in an oral administration manner on the twenty-first day after the breeding. On each sixth to eighth day after the infection, the feces of the groups were sampled, and the number of oocysts per gram of the feces (OPG) was measured (as a three-day average value).

[3] = tested on: clostridium perfringens; type: in vivo, chickens; details: for Body weight, compared-group comparison / Body weight gain, compared-group comparison / Feed intake, compared-group comparison / Feed conversion ratio, compared-group comparison / Number of clostridium perfringens, compared-group comparison: index, Fifteenth Group = 100

CC[C@@H](C(=O)[C@@H](C)[C@@H](O)[C@H](C)[C@@H]1O[C@@H]([C@@H](CC)C(=O)O)CC[C@@H]1C)[C@H]1O[C@]2(C=C[C@@H](O)[C@]3(CC[C@@](C)([C@H]4CC[C@](O)(CC)[C@H](C)O4)O3)O2)[C@H](C)C[C@@H]1C [Third group, Salinomycine]
Average OPG score in feces D ([1]; 0 to 40 points from OPG values per Table 3, average of three tested bodies in each group): 33.3
ACI (anticoccidial indces) ([1]; ACI = (A + B) − (10C + D)): 126
Relative ratio weight gain/initial weight (compared with First group) A ([1]; First group (non-infected basal feed) = 100): 95.0%
Average final body weight ([1]; after 12 days breeding, infected on day 7 with 5.0×10^4 oocysts/chicken): 643 g
Feed conversion ratio ([1]; in vivo): 1.32
Feed intake ([1]; in vivo): 318 g/chicken
Survival ratio B ([1]; in vivo): 100.0%
Weight gain/initial weight ratio ([1]; in vivo): 60.1%
Body weight gain ([1]; initial to final weight): 242 g/chicken
Average lesion score C ([1]; lesion in duodenum, 0 to 4 points per Table 2): 3.6
Body weight gain ([2]; 28 days): 1018 g/chicken
Feed conversion ratio ([2]; 28 days): 1.50
Feed intake ([2]; 28 days): 1525 g/chicken
Final body weight ([2]; 28 days breeding, infected day 21 with 1.5×10^4 oocysts/chicken): 1054 g/chicken
Maxima OPG ([2]; average on the 6 to 8 days after infection): 3.1 10,000 oocysts/g of feces
Growth ratio ([2]; in vivo): 100(100) %
Final body weight, compared-group comparison ([2]; index, Eighth Group (basal feed) = 100): 117
Body weight gain, compared-group comparison ([2]; index, Eighth Group = 100): 117
Feed conversion ratio, compared-group comparison ([2]; index, Eighth Group = 100): 94
Feed intake, compared-group comparison ([2]; index, Eighth Group = 100): 110
Growth ratio, compared-group comparison ([2]; index, Eighth Group = 100): 100(100)
Maxima OPG, compared-group comparison ([2]; index, Eighth Group = 100): 18

enramycin [Sixteenth Group]
Body weight gain ([3]; 1 week): 96 g/chicken
Feed intake ([3]; 1 week): 118 g/chicken
Body weight ([3]; 1 week of age, basal feed with 30% rye): 136 g/chicken
Body weight, compared-group comparison ([3]; 1 week of age): 114
Body weight gain, compared-group comparison ([3]; 1 week): 121
Feed intake, compared-group comparison ([3]; 1 week): 107
Body weight gain ([3]; 2 weeks): 220 g/chicken
Feed intake ([3]; 2 weeks): 323 g/chicken
Body weight ([3]; 2 weeks of age): 356 g/chicken
Body weight, compared-group comparison ([3]; 2 weeks of age): 124
Body weight gain, compared-group comparison ([3]; 2 weeks): 132
Feed intake, compared-group comparison ([3]; 2 weeks): 140
Body weight gain ([3]; 3 weeks): 345 g/chicken
Feed intake ([3]; 3 weeks): 510 g/chicken
Body weight ([3]; 3 weeks of age): 700 g/chicken
Body weight, compared-group comparison ([3]; 3 weeks of age): 130
Body weight gain, compared-group comparison ([3]; 3 weeks): 135
Feed intake, compared-group comparison ([3]; 3 weeks): 124
Feed conversion ratio ([3]; First week): 1.23
Number of clostridium perfringens ([3]; First week, cloacal swab): 2.0 LogCFU/g
Feed conversion ratio, compared-group comparison ([3]; First week): 89
Number of clostridium perfringens, compared-group comparison ([3]; First week): 34
Feed conversion ratio ([3]; Second week): 1.47
Number of clostridium perfringens ([3]; Second week, cloacal swab): 2.0 LogCFU/g
Feed conversion ratio, compared-group comparison ([3]; Second week): 106
Number of clostridium perfringens, compared-group comparison ([3]; Second week): 47
Feed conversion ratio ([3]; Third week): 1.48
Number of clostridium perfringens ([3]; Third week, cloacal swab): 2.0 LogCFU/g
Feed conversion ratio, compared-group comparison ([3]; Third week): 91
Number of clostridium perfringens, compared-group comparison ([3]; Third week): 41
Feed conversion ratio ([3]; Total): 1.44
Body weight gain ([3]; Total (21 days)): 660 g/chicken
Feed intake ([3]; Total (21 days)): 950 g/chicken
Number of clostridium perfringens ([3]; Total (no unit printed in this row; weekly rows in LogCFU/g)): 2.0
Body weight gain, compared-group comparison ([3]; Total): 132
Feed conversion ratio, compared-group comparison ([3]; Total): 96
Feed intake, compared-group comparison ([3]; Total): 126
Number of clostridium perfringens, compared-group comparison ([3]; Total): 40
